Results: publication PMC10269622, “Blapstin, a Diapause-Specific Peptide-Like Peptide from the Chinese Medicinal Beetle Blaps rhynchopetera, Has Antifungal Function” (Microbiology Spectrum, 2023)
Bridge positions count the residues as written; N and C are the ends. Ends that are not written are not given here.

Tests used:
C. albicans = test: pH stability of antifungal activity (paper disk assay); format: physicochemical, Candida albicans; settings: 30 min at room temperature, then paper disk assay, 37°C, 18 h
Protocol: (ii) Effects of pH. In the test of pH stability of antifungal activity, 50 mg of blapstin was dissolved in 25 mL of solutions with different pH values (pH 3 to 5, 0.1 mol HCl; pH 7 to 9, 1 mmol NaOH), and the peptide solutions of different pH values were incubated at room temperature for 30 min ([63]). Colistin E was used as the positive control, and 1.5% NaCl was used as the negative control. Then, these samples were transferred to the paper disks in the YM solid medium with C. albicans and incubated at 37°C for 18 h for the assay of antifungal activity.

RAW 264.7 cells = test: Cytotoxicity, CCK-8 assay; format: cell-based, mouse; settings: from 7.03 μM to 225 μM, 24 h, CCK-8, absorbance at 450 nm; three independent experiments
Protocol: Cytotoxicity was determined using mouse RAW 264.7 cells (10^6 cells/mL). These cells were cultured in sterile 96-well microplates with RPMI 1640 medium (Corning, USA) in a 5% CO2 incubator at 37°C. The medium was supplemented with 10% fetal calf serum (FCS) and penicillin-streptomycin (100 U/mL each). Cytotoxicity was assessed using the cell counting kit-8 (CCK-8) assay (MCE, USA). After 24 h of incubation with serial dilutions of blapstin, 10 μL of CCK-8 solution was added to each well. The plate was further incubated for 1 to 4 h under standard cell growth conditions, and the residual absorbance was read at 450 nm. The experiments were repeated three times according to the manufacturer’s instructions.

[1] = test system: C. albicans ATCC 10231 biofilm; test: Inhibition of biofilm formation (crystal violet); format: cell-based, Candida albicans; settings: 0.5×, 1×, 2×, 4× and 8× MIC, 24 h, 37°C, absorbance at 600 nm
Protocol: Biofilms are microbial aggregates produced by the extracellular matrix that are attached to abiotic and biotic surfaces ([57]). A biofilm inhibition assay was performed as previously described, with minor modifications, to determine the ability of blapstin to inhibit biofilm formation ([69], [70]). In brief, the concentration of C. albicans ATCC 10231 was adjusted to 1 × 10^6 CFU/mL, and 200 μL per well was added to sterile 96-well plates mixed with different concentrations of blapstin (0.5×, 1×, 2×, 4×, and 8× MIC). After incubation for 24 h at 37°C, these wells were washed three times with PBS to remove unadhered fungal cells, followed by fixation with 99% methanol for 15 min. Next, methanol was removed, and the wells were allowed to dry. Then, 100 μL of 0.1% crystal violet was added to each well for 10 min, and the plate was washed three times. Finally, 100 μL of 95% ethanol was added, and the absorbance at 600 nm was measured to assess biofilm formation. Fluconazole at 10 μM and clotrimazole at 10 μΜ were used as a positive control, and sterile 0.9% NaCl was used as a negative control.

[2] = test system: C. albicans ATCC 10231 biofilm; test: CLSM live/dead (FDA/PI) staining of biofilm; format: cell-based, Candida albicans; settings: 8× MIC, among 0.5× to 8× MIC; 48 h, 37°C
Protocol: Blapstin at various concentrations (500 μL) was added to 500 μL of the prepared fungal suspension of C. albicans ATCC 10231 (2 × 10^5 CFU/mL) in a sterile 24-well plate to ensure that the final concentration of blapstin ranged from 0.5× to 8× MIC; the plate was incubated for 48 h at 37°C, followed by washing with PBS two to three times to remove unadhered fungal cells. Then, 10 μg/mL of FDA (Solarbio, Beijing, China) and 5 μg/mL of PI (Solarbio, Beijing, China) were added for costaining in the dark for 30 min and washed with PBS twice, as described previously ([68]). Subsequently, the plates were observed using a CLSM (FV 1000; Olympus, Germany). The FDA and PI were excited at 488 nm and 555 nm, respectively, for imaging. Cell viability was assessed based on fluorescence staining; living cells hydrolyze FDA, resulting in the accumulation of green fluorescence, whereas dead cells are stained red by PI. Fluconazole at 10 μΜ and clotrimazole at 10 μΜ were used as a positive control, and sterile 0.9% NaCl was used as a negative control. Green or red fluorescence intensity was calculated using Image J.

[3] = test system: Escherichia coli ATCC 8739; test: MIC, broth double dilution; format: cell-based; settings: 96-well plate, 37°C, 16 h, absorbance at 600 nm, mean of three independent experiments, ND = no bacteriostatic activity
Protocol: (§1) The standard strain of C. albicans (ATCC 10231), three clinically isolated antibiotic-resistant strains (C. albicans 0065, C. albicans 0063, and C. albicans 6), E. coli (ATCC 8739), and S. aureus (ATCC 6538) were obtained from Kunming Medical University. T. rubrum was purchased from BeNa Culture Collection (BNCC, CAS no. 340195). Different strains of C. albicans, E. coli, and S. aureus were cultured with shaking at 37°C in YM medium and Luria-Bertani (LB) medium. T. rubrum was cultured at 28°C in potato dextrose agar (PDA) medium according to the manufacturer’s instructions.
(§2) According to CLSI protocols, the MIC is determined as a point where there is “zero detectable growth,” The MIC of blapstin against different fungal strains was determined by use of the double dilution method, namely, broth dilution determination. In brief, the different strains were grown in their corresponding media at 28°C or 37°C until they reached the exponential growth phase. Colistin E and fluconazole were used as positive controls. Blapstin was diluted to various concentrations in sterile saline: 100 μL of sterile saline was added to the second well of a sterile 96-well plate, and then 100 μL of blapstin was added to the first and second wells. The solution from the second well was double-diluted with sterile saline until the 11th well, from which 100 μL was removed. In the 12th well, no blapstin was added, and sterile saline was used as a negative control. Afterward, 100 μL of the diluted microbial solution was added to each well, followed by incubation at 37°C for 16 h. To assess the antifungal activity of blapstin against the T. rubrum strain, the spore germination rates were first determined microscopically with a hemocytometer. T. rubrum was diluted with normal saline to 1 × 10^5 CFU/mL and then incubated with various concentrations of blapstin at 28°C for 16 h. The absorbance at 600 nm was measured by a microplate reader (Epoch Etock; Biotek, USA) to estimate the inhibition of bacteria and fungi by blapstin.

[4] = test system: Staphylococcus aureus ATCC 6538; test: MIC, broth double dilution; format: cell-based; settings: 96-well plate, 37°C, 16 h, absorbance at 600 nm, mean of three independent experiments, ND = no bacteriostatic activity
Protocol: as §1, §2

## VRVGPCDQVCSRTNPEKDECCRAHGHSGHSSCYGGRMNCYG (disulfide 6-21, 10-32, 20-39 (inferred)) [Blapstin]
C. albicans; pH 3 and pH 5 (HCl)
  Antifungal activity after pH exposure: full antifungal activity was retained
C. albicans; pH higher than 7 (NaOH, up to pH 9)
  Antifungal activity after pH exposure: reduced gradually
RAW 264.7 cells
  Cytotoxicity in RAW 264.7 cells: no obvious cytotoxicity
[1]
  Biofilm formation by C. albicans: dose-dependently inhibited
[2]
  Effect on biofilm activity (FDA-labeled live / PI-labeled dead cells, CLSM): greatest effect
[3]
  MIC: did not affect
[4]
  MIC: did not affect
